Earlier results on one compound are cited in patent US20110118134A1, “Biomarkers for insulin sensitizer drug response” (IKFE GmbH, priority 2008, published 2011).

The data set concerns MIF. The settings on record: six week treatment, eight non-diabetic patients with obesity.

For the compound `CN(C)C(=N)N=C(N)N` [metformin], the “Plasma concentration of MIF and transcription of MIF mRNA in mononuclear cells” value is “could be reduced”.
